Assay results taken from ChEMBL document CHEMBL5316308, “BET-HDAC Dual Inhibitors for Combinational Treatment of Breast Cancer and Concurrent Candidiasis” (J Med Chem, 2023).
Active and inactive are the calls of the source. The calls are words filed in the database; no cut-off is given here.

How the values were obtained:
[1] = target: T1, Protein deacetylase HDAC6 (Homo sapiens, UniProt Q9UBN7); test: Inhibition of N-terminal GST-tagged recombinant human HDAC6 expressed in baculovirus infected Sf9 insect cells using Ac-Leu-Gly-Lys(Ac)-AMC as substrate incubated for 30 mins by fluorescence based assay
T1 sequence (Q9UBN7 whole entry): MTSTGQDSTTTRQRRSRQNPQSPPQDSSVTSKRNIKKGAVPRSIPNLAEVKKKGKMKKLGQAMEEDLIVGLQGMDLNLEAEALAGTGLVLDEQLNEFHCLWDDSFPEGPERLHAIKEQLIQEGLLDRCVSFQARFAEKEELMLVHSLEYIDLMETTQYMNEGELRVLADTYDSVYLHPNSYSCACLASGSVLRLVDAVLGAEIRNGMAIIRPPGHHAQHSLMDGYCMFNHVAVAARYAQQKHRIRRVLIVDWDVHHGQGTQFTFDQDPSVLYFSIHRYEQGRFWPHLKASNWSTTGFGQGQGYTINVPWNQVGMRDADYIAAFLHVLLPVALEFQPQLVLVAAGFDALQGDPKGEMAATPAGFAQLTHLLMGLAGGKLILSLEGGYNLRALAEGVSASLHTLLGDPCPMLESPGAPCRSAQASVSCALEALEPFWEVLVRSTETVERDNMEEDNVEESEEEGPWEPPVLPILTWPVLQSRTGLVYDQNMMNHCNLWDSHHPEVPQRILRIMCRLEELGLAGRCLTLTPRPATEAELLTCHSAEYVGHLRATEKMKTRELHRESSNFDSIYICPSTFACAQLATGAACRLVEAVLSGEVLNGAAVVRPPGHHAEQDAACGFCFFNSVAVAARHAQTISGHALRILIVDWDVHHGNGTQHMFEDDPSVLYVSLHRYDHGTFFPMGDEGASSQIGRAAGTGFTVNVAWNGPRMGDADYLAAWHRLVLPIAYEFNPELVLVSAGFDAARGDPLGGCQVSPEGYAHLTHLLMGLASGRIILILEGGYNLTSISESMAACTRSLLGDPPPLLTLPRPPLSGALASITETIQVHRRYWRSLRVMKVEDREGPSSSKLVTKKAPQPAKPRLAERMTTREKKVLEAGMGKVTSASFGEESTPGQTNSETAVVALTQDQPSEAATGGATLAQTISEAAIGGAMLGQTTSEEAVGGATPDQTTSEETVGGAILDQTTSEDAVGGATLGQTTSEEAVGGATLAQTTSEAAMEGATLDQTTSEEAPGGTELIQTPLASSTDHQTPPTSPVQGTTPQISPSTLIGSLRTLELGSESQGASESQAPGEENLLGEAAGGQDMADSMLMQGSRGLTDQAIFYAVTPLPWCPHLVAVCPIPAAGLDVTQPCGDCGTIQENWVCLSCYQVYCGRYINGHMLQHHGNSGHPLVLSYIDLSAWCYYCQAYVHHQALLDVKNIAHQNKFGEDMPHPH

MDA-MB-231 [2] = test: Induction of apoptosis in human MDA-MB-231 cells assessed as late apoptotic cells at 2.5 uM incubated for 48 hrs by Annexin V-FITC/PI staining based flow cytometry relative to control; assay type: functional
MDA-MB-231 [3] = test: Induction of apoptosis in human MDA-MB-231 cells assessed as late apoptotic cells at 10 uM incubated for 48 hrs by Annexin V-FITC/PI staining based flow cytometry relative to control; assay type: functional
Candida albicans [4] = test: Synergistic antifungal activity against azole-resistant Candida albicans 0304103 assessed as fungal growth inhibition measured upto 24 hrs in presence of FLC by absorbance based assay; assay type: functional, organism-based; details: dose 4-16 µg/ml
MDA-MB-231 [5] = test: Upregulation of acetyl-H3 level in human MDA-MB-231 cells incubated for 24 hrs by Western blot analysis; assay type: functional, cell-based; details: dose 0.2-5 µM
[6] = Metabolic stability in ICR mouse liver microsome assessed as half life; assay type: ADME; details: liver microsomes
MDA-MB-231 [7] = test: Induction of apoptosis in human MDA-MB-231 cells assessed as late apoptotic cells at 5 uM incubated for 48 hrs by Annexin V-FITC/PI staining based flow cytometry relative to control; assay type: functional
K562 = test: Antiproliferative activity against human K562 cells assessed as cell growth inhibition incubated for 24 hrs by CCK-8 assay; assay type: functional, cell-based; details: K562, 24 h
Candida albicans [8] = assay type: functional, 0304103; details: time 48 hrs
Description: Synergistic antifungal activity against azole-resistant Candida albicans 0304103 assessed as fractional inhibitory concentration index measured after 48 hrs in presence of FLC by CLSI based micro-dilution broth method

Candida albicans [9] = test: Synergistic antifungal activity FLC-resistant Candida albicans 0304103 assessed as hyphal formation at 32 ug/ml incubated for 3 hrs in presence of FLC by inverse fluorescent microscopy; assay type: functional, organism-based; details: dose 32.0 µg/ml
[10] = target: Bromodomain-containing protein 3 (Homo sapiens, UniProt Q15059); test: Inhibition of recombinant BRD3 BD1 (unknown origin) incubated for 120 mins by TR-FRET assay
Sequence of Bromodomain-containing protein 3 (Q15059 whole entry): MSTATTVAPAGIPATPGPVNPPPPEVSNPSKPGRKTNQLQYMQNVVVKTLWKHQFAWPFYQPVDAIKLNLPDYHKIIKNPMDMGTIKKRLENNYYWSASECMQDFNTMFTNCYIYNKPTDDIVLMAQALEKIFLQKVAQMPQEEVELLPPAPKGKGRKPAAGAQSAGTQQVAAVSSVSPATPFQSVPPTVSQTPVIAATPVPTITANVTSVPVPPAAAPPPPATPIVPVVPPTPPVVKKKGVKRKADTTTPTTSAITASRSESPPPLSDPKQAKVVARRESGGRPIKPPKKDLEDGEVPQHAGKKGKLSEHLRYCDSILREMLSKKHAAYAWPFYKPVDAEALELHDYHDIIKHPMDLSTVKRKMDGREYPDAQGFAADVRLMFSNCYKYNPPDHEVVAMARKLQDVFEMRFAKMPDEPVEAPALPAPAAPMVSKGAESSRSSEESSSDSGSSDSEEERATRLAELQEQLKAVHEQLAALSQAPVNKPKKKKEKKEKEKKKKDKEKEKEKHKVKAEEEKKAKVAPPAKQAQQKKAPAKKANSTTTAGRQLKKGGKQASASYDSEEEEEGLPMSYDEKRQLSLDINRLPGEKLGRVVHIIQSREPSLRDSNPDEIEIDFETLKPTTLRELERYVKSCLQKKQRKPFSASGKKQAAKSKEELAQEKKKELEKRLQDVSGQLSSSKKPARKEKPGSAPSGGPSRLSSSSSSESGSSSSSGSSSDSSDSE

Compound | IC50 [1] [µM] | Activity (MDA-MB-231 [2]) [%] | Activity (MDA-MB-231 [3]) [%] | Activity (Candida albicans [4]) | Activity (MDA-MB-231 [5]) | half-life [6] [min] | Activity (MDA-MB-231 [7]) [%] | IC50 (K562) [µM] | fractional inhibitory concentration index (FICI) (Candida albicans [8]) | Activity (Candida albicans [9]) | IC50 [10] [µM]
COc1cc2c(cc1-c1c(C)noc1C)[nH]c1ncnc(NCCCCCCC(=O)NO)c12 | 0.009 | 25.19 | 69.85 | Dose-Dependent Effect | Dose-Dependent Effect | 53.3 | 58.39 | 2.5 | 0.07 | inactive | 0.113
COc1cc2c(cc1-c1c(C)noc1C)[nH]c1nc(C)nc(NCCCCCCC(=O)NO)c12 | 0.014 | 8.35 | 49.38 | Dose-Dependent Effect | Dose-Dependent Effect | 19.3 | 46.61 | 2.5 | 0.25 | inactive | 2.59
